From publication PMC8170132, “Kinetics of Abacavir-Induced Remodelling of the Major Histocompatibility Complex Class I Peptide Repertoire” (Frontiers in Immunology, 2021)

Target: T1, HLA-B*57:01fos (Homo sapiens, UniProt P01889, D201E/D98Y/E176V/E187L/E204Q/E69M/E70A/G107R/I90N/K202T/L105A/L119I/N104I/N87E/Q89R/Q94S/R106L/R155S/R180L/R86G/S101N/S121V/S35A/S48A/T118I/V36M/Y140S/Y91M)
T1 construct: Fos leucine zipper (C); made in house
Assay: Fluorescence polarisation association rate measurements
Format: binding
Conditions: 60 µM abacavir + tapasin-jun, fluorescence polarisation, 25°C
Protocol: (§1) Peptide loaded HLA-B*57:01fos complexes were obtained as described ([50]) by refolding solubilised inclusion bodies of HLA-B*57:01fos heavy chains with human β 2m and UV-labile HLA-B57-conditional peptide ligand.
(§2) Fluorescence polarisation measurements were taken using a SpectraMax i3x Multi-Mode Microplate Reader (Molecular Devices) with rhodamine detection cartridge. All experiments were conducted at 25°C and used PBS supplemented with 0.5 mg/ml bovine-gamma-globulin (Sigma), and a 20 fold molar excess of human β 2m (Fitzgerald) in a volume of 60 µl. Binding of TAMRA-labelled peptides is reported in millipolarisation units (mP) and is obtained from the equation mP = 1,000 × (S – G × P)/(S + G × P), where S and P are background subtracted fluorescence count rates (S = polarisation emission filter is parallel to the excitation filter; P = polarisation emission filter is perpendicular to the excitation filter) and G (grating) is an instrument and assay dependent factor.
Peptide-receptive HLA-B*57:01fos were obtained by exposing HLA-B*57:01fos complexes loaded with UV labile conditional peptide ligand to ~360 nm light for 20 min at 4°C (“UV exposed” hereafter). The binding of fluorescent peptides to UV exposed HLA-B*57:01fos was monitored in the absence or presence of excess (60 µM) abacavir or tapasin-jun or tapasin-jun ERp57 C60A conjugate. […] Most experiments used 0.55 µM HLA-B*57:01fos molecules, but a minority of experiments involved different preparations of HLA-B*57:01fos which required higher concentrations of HLA-B*57:01fos, up to a maximum of 3.18 µM HLA-B*57:01fos, to achieve equivalent polarisation levels.

Compound	Effect of combined abacavir and tapasin on binding of fluorescent peptide to HLA-B*57:01fos
RVDPAK*GLFYF	tapasin partially mitigated this effect
KTFK*DVGNLL	occurred faster than in the presence of tapasin or abacavir alone
TSLK*SRVTI	occurred faster than in the presence of tapasin or abacavir alone
VTKK*TYEIW [TAMRA labelled canonical HLA-B*57:01 peptide]	did not enhance the binding

Same assay, conditions: 60 µM abacavir, fluorescence polarisation, 25°C

Compound	Effect of abacavir on binding of fluorescent peptide to HLA-B*57:01fos
ATFK*GIVRAI	less pronounced
RVDPAK*GLFYF	enhanced by abacavir during the first hour
KTFK*DVGNLL	binding strongly enhanced
VTKKTYEIW [non-labelled canonical HLA-B*57:01 ligand]	enhanced the binding
TSLK*SRVTI	binding strongly enhanced

Same assay, conditions: peptide alone, fluorescence polarisation (mP), 25°C

Compound	Intrinsic binding of fluorescent peptide to UV exposed HLA-B*57:01fos
RVDPAK*GLFYF	poor binding
KTFK*DVGNLL	limited intrinsic ability to bind
TSLK*SRVTI	limited intrinsic ability to bind
VTKK*TYEIW [TAMRA labelled canonical HLA-B*57:01 peptide]	bound to HLA-B*57:01 molecules

Same assay, conditions: tapasin-jun or tapasin-jun ERp57 C60A conjugate, fluorescence polarisation, 25°C

Compound	Effect of tapasin on binding of fluorescent peptide to HLA-B*57:01fos
NTVELRVK*I	did not affect the binding
ATFK*GIVRAI	only slightly enhanced binding
KVFK*LQTSL	only slightly enhanced binding
KTFK*DVGNLL	binding strongly enhanced
TSLK*SRVTI	binding strongly enhanced
VTKK*TYEIW [TAMRA labelled canonical HLA-B*57:01 peptide]	catalysed binding of the VTK and ITT peptides to a greater extent than abacavir

Target: HLA-B*15:02 (Homo sapiens, UniProt P01889, A329T/A93T/A95T/C349S/D201E/D98Y/E187L/E204Q/E69M/E70A/H137Y/K202T/L119I/Q94N/R155S/R180L/S121R/S35A/S48A/T118I/V306I/V36M/Y140S/Y91S)
Assay: not given
Conditions: ref [20]–[22]; cited from earlier work

Compound	Odds ratio of hypersensitivity reaction with HLA-B*15:02
NC(=O)N1c2ccccc2C=Cc2ccccc21 [carbamazepine]	> 500

Target: T1, HLA-B*57:01fos
Assay: Fluorescence polarisation dissociation rate measurements
Format: binding
Conditions: 60 µM abacavir with competing peptide
Protocol: as §1, §2
HLA-B*57:01fos molecules were UV exposed and then allowed to bind fluorescent peptides overnight at room temperature. Florescence polarisation measurements were taken after the addition of excess non-labelled competitor peptide (otherwise identical to the labelled peptide) in the absence or presence of 60 µM abacavir or conjugated tapasin-jun-ERp57 C60A proteins. […] Most experiments used 0.55 µM HLA-B*57:01fos molecules, but some experiments involved different preparations of HLA-B*57:01fos which required higher concentrations of HLA-B*57:01fos, up to a maximum of 1.38 µM HLA-B*57:01fos, to achieve equivalent polarisation levels.
Supplementary Table 2. Dissociation rates of TAMRA-labelled peptides from HLA-B*57:01fos molecules. The rates at which the indicated peptides dissociated from HLA-B*57:01fos molecules in the presence of excess unlabelled competing peptide (“Comp”), abacavir and tapasin (data shown in figure 7) was measured by Graphpad Prism v9.1.0. The dissociation rates were calculated by performing non-linear regression, using the one-phase decay method, with plateaus constrained to be equal to 50 mP (apart from being unconstrained for RVD peptide). The number of experimental replicates, and the standard deviation in the measured dissociation rates across the replicates is also presented.

Compound	Effect of abacavir on dissociation of the peptide from HLA-B*57:01fos
NTVELRVK*I	pronounced decrease in the dissociation
ATFK*GIVRAI	pronounced decrease in the dissociation
KVFK*LQTSL	pronounced decrease in the dissociation
RVDPAK*GLFYF	modestly enhanced
KTFK*DVGNLL	pronounced decrease in the dissociation
TSLK*SRVTI	pronounced decrease in the dissociation
VTKK*TYEIW [TAMRA labelled canonical HLA-B*57:01 peptide]	minimal impact on the dissociation

Same assay, conditions: as Comp, plus 60 µM abacavir; fluorescence polarisation, 25°C; one-phase decay, plateau 50 mP (unconstrained for RVD); 3-4 replicates

Compound	Half life (hours) of dissociation from HLA-B*57:01fos, Comp+Abacavir
NTVELRVK*I	233.60 h
ATFK*GIVRAI	71.63 h
KVFK*LQTSL	51.83 h
RVDPAK*GLFYF	0.26 h
KTFK*DVGNLL	814.20 h
TSLK*SRVTI	22.41 h
VTKK*TYEIW [TAMRA labelled canonical HLA-B*57:01 peptide]	373.30 h

Same assay, conditions: as Comp, plus conjugated tapasin-jun-ERp57 C60A (mostly 0.254 µM); fluorescence polarisation, 25°C; one-phase decay, plateau 50 mP (unconstrained for RVD); 3-4 replicates

Compound	Half life (hours) of dissociation from HLA-B*57:01fos, Comp+Tapasin
NTVELRVK*I	1.60 h
ATFK*GIVRAI	2.04 h
KVFK*LQTSL	1.06 h
RVDPAK*GLFYF	0.35 h
TSLK*SRVTI	5.12 h
VTKK*TYEIW [TAMRA labelled canonical HLA-B*57:01 peptide]	207.90 h

Same assay, conditions: as Comp, plus tapasin-jun-ERp57 C60A and 60 µM abacavir; fluorescence polarisation, 25°C; one-phase decay, plateau 50 mP (unconstrained for RVD); 3-4 replicates

Compound	Half life (hours) of dissociation from HLA-B*57:01fos, Comp+Tapasin+Abacavir
NTVELRVK*I	142.70 h
ATFK*GIVRAI	33.59 h
KVFK*LQTSL	2.47 h
RVDPAK*GLFYF	0.26 h
KTFK*DVGNLL	62.89 h
TSLK*SRVTI	10.38 h
VTKK*TYEIW [TAMRA labelled canonical HLA-B*57:01 peptide]	198.40 h

Same assay, conditions: competing peptide only

Compound	Rate of dissociation from HLA-B*57:01fos (in words)
RVDPAK*GLFYF	minutes
VTKK*TYEIW [TAMRA labelled canonical HLA-B*57:01 peptide]	hundreds of hours

Same assay, conditions: fluorescence polarisation, 25°C, PBS + 0.5 mg/ml bovine-gamma-globulin, 20 fold excess human β2m; excess unlabelled competing peptide only; one-phase decay, plateau 50 mP (unconstrained for RVD); 3-4 replicates

Compound	Half life (hours) of dissociation from HLA-B*57:01fos, Comp
NTVELRVK*I	2.67 h
ATFK*GIVRAI	2.34 h
KVFK*LQTSL	3.27 h
RVDPAK*GLFYF	0.31 h
KTFK*DVGNLL	402.30 h
TSLK*SRVTI	7.41 h
VTKK*TYEIW [TAMRA labelled canonical HLA-B*57:01 peptide]	374.80 h

Same assay, conditions: tapasin-jun-ERp57 C60A with competing peptide

Compound	Tapasin dependent enhancement of dissociation
NTVELRVK*I	minimal
KVFK*LQTSL	significant
KTFK*DVGNLL	significant

Target: T2, HLA-B*57:01 (Homo sapiens, UniProt P01889, D201E/D98Y/E176V/E187L/E204Q/E69M/E70A/G107R/I90N/K202T/L105A/L119I/N104I/N87E/Q89R/Q94S/R106L/R155S/R180L/R86G/S101N/S121V/S35A/S48A/T118I/V36M/Y140S/Y91M)
Assay: not given
Design: method as in Illing et al., Nature 2012
Conditions: abacavir treated cells; ref Illing et al., Nature 2012; cited from earlier work

Compound	HLA-B*57:01 previous observation by LC-MS/MS, Abacavir treated
VTKKTYEIW [non-labelled canonical HLA-B*57:01 ligand]	+ (+ (< 5% FDR))

Same assay, conditions: untreated cells; ref Illing et al., Nature 2012; cited from earlier work

Compound	HLA-B*57:01 previous observation by LC-MS/MS, Untreated
VTKKTYEIW [non-labelled canonical HLA-B*57:01 ligand]	+ (+ (< 5% FDR))

Target: T2, HLA-B*57:01
Assay: LC-MRM-MS quantitation of HLA ligands and co-purified abacavir from abacavir treated C1R.B*57:01 cells
Format: cell-based
Conditions: C1R.B*57:01, 35 µM abacavir 0-16 h or constant; linear regression of normalised abundance, three replicates

Compound	Category of abacavir impact on peptide abundance in the immunopeptidome
VTKKTYEIW [non-labelled canonical HLA-B*57:01 ligand]	Minimal

Same assay, conditions: LC-MRM-MS detection; classification of the peptide based on abacavir dependency

Compound	Abacavir dependence
VTKKTYEIW [non-labelled canonical HLA-B*57:01 ligand]	Minimal

Same assay, conditions: linear regression of LC-MRM-MS peptide abundance over abacavir treatment time

Compound	Linear regression slope
VTKKTYEIW [non-labelled canonical HLA-B*57:01 ligand]	0.0161
